According to the supplement of paper PMC10307832:

Legend:
Test in all cases: relative viability (nuclei count vs DMSO), 5 days (fraction); higher = more cells survive
GW-2580 + Crizotinib = compound: COC1=CC=C(C=C1)COC2=C(C=C(C=C2)CC3=CN=C(N=C3N)N)OC [GW-2580] + C[C@@H](Oc1cc(-c2cnn(C3CCNCC3)c2)cnc1N)c1c(Cl)ccc(F)c1Cl [Crizotinib] (partner 1 µM)
In short: (§1)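 Medians of duplicate plates are given as relative viability. That measure is the nuclei count in treated wells divided by the count in vehicle wells. Counts were taken on 4× images of lung cancer cell lines in 1536-well plates, 5 days after pin-tool dosing the day after seeding with one drug alone or a fixed anchor-drug dose plus five library-drug doses (not always all listed) in √10 steps.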

GW-2580 + Foretinib = compound: COC1=CC=C(C=C1)COC2=C(C=C(C=C2)CC3=CN=C(N=C3N)N)OC [GW-2580] + COc1cc2c(Oc3ccc(NC(=O)C4(C(=O)Nc5ccc(F)cc5)CC4)cc3F)ccnc2cc1OCCCN1CCOCC1 [Foretinib] (partner 0.25 µM)
In short: as §1

Fedratinib + Bortezomib = compound: Cc1cnc(Nc2ccc(OCCN3CCCC3)cc2)nc1Nc1cccc(S(=O)(=O)NC(C)(C)C)c1 [Fedratinib] + CC(C)C[C@H](NC(=O)[C@H](Cc1ccccc1)NC(=O)c1cnccn1)B(O)O [Bortezomib] (partner 0.002 µM)
In short: as §1

Fedratinib + Lapatinib = compound: Cc1cnc(Nc2ccc(OCCN3CCCC3)cc2)nc1Nc1cccc(S(=O)(=O)NC(C)(C)C)c1 [Fedratinib] + CS(=O)(=O)CCNCc1ccc(-c2ccc3ncnc(Nc4ccc(OCc5cccc(F)c5)c(Cl)c4)c3c2)o1 [Lapatinib] (partner 2 µM)
In short: as §1

Fedratinib + Vorinostat = compound: Cc1cnc(Nc2ccc(OCCN3CCCC3)cc2)nc1Nc1cccc(S(=O)(=O)NC(C)(C)C)c1 [Fedratinib] + O=C(CCCCCCC(=O)Nc1ccccc1)NO [Vorinostat] (partner 1 µM)
In short: as §1

| Cell Line | relative viability (GW-2580 + Crizotinib; first compound 0.08 µM) | relative viability (GW-2580 + Crizotinib; first compound 0.8 µM) | relative viability (GW-2580 + Crizotinib; first compound 2.53 µM) | relative viability (GW-2580 + Crizotinib; first compound 8 µM) | relative viability (GW-2580 + Foretinib; first compound 0.08 µM) | relative viability (GW-2580 + Foretinib; first compound 0.8 µM) | relative viability (GW-2580 + Foretinib; first compound 2.53 µM) | relative viability (GW-2580 + Foretinib; first compound 8 µM) | relative viability (Fedratinib + Bortezomib; first compound 0.1 µM) | relative viability (Fedratinib + Bortezomib; first compound 0.3162 µM) | relative viability (Fedratinib + Bortezomib; first compound 1 µM) | relative viability (Fedratinib + Lapatinib; first compound 0.1 µM) | relative viability (Fedratinib + Lapatinib; first compound 0.3162 µM) | relative viability (Fedratinib + Lapatinib; first compound 1 µM) | relative viability (Fedratinib + Vorinostat; first compound 0.1 µM) | relative viability (Fedratinib + Vorinostat; first compound 0.3162 µM) | relative viability (Fedratinib + Vorinostat; first compound 1 µM) |
| --- | --- | --- | --- | --- | --- | --- | --- | --- | --- | --- | --- | --- | --- | --- | --- | --- | --- |
| NCI-H3122 | 0.286 | 0.309 | 0.247 | 0.238 | 1.07 | 0.991 | 0.982 | 0.961 | 0.991 | 0.981 | 0.485 | 1.04 | 0.966 | 0.555 | 1.07 | 1 | 0.988 |
| PC-3 [JPC-3] | 0.985 | 1.08 | 0.98 | 0.945 | 1.06 | 1.06 | 0.948 | 0.865 | 0.796 | 0.781 | 0.869 | 0.422 | 0.446 | 0.412 | 0.719 | 0.978 | 0.676 |
| PC-14 | 0.949 | 1.04 | 0.907 | 0.899 | 1.08 | 1.07 | 0.924 | 0.936 | 0.885 | 0.81 | 0.951 | 0.261 | 0.351 | 0.249 | 0.761 | 0.83 | 0.727 |
| RERF-LC-KJ | 0.818 | 0.915 | 0.778 | 0.76 | 0.896 | 0.911 | 0.842 | 0.765 | 1.06 | 1.16 | 1.05 | 0.879 | 0.844 | 0.838 | 0.66 | 0.669 | 0.573 |
| SK-LU-1 | 1 | 1.08 | 0.798 | 1.06 | 0.823 | 0.934 | 0.708 | 0.816 | 1.33 | 1.23 | 0.967 | 0.851 | 0.871 | 0.578 | 0.766 | 0.786 | 0.614 |
| SW 1573 | 0.73 | 0.764 | 0.803 | 0.643 | 1.02 | 1.02 | 1.02 | 0.852 | 1.05 | 0.911 | 0.983 | 1.13 | 1.15 | 1.01 | 0.744 | 0.701 | 0.413 |
